In patent US11369688B2, “Hybrid telodendrimers” (THE REGENTS OF THE UNIVERSITY OF CALIFORNIA, priority 2016, dated 2022):

Assay: Visual observation of drug-loaded crosslinked PEG5K-(Ahx-(NAc-Cys))4/CA4 nanocarriers
Format: physicochemical
Conditions: 1 mg drug/10 mg PEG5K-(Ahx-(NAc-Cys))4/CA4, crosslinked; effective concentration 2 mg drug/20 mg polymer per ml PBS

| Structure (SMILES) | Observation |
| --- | --- |
| CO[C@H]1C(=O)[C@]2(C)[C@@H](OC)C[C@H]3OC[C@@]3(OC(C)=O)[C@H]2[C@H](OC(=O)c2ccccc2)[C@]2(O)C[C@H](OC(=O)[C@H](O)[C@@H](NC(=O)OC(C)(C)C)c3ccccc3)C(C)=C1C2(C)C [Cabazitaxel, cabazitaxel] | Clear solution |
| CC(=O)O[C@@]12CO[C@@H]1C[C@H](O)[C@@]1(C)C(=O)[C@H](O)C3=C(C)[C@@H](OC(=O)[C@H](O)[C@@H](NC(=O)OC(C)(C)C)c4ccccc4)C[C@@](O)([C@@H](OC(=O)c4ccccc4)[C@H]21)C3(C)C [Docetaxel, docetaxel] | Clear solution |
| COc1cccc2c1C(=O)c1c(O)c3c(c(O)c1C2=O)C[C@@](O)(C(=O)CO)C[C@@H]3O[C@H]1C[C@H](N)[C@H](O)[C@H](C)O1 [Doxorubicin] | Clear solution |
| CCc1c2c(nc3ccc(O)cc13)-c1cc3c(c(=O)n1C2)COC(=O)[C@]3(O)CC [SN-38] | Huge precipitate |
| CC[C@]1(O)C[C@@H]2CN(CCc3c([nH]c4ccccc34)[C@@](C(=O)OC)(c3cc4c(cc3OC)N(C)[C@H]3[C@@](O)(C(=O)OC)[C@H](OC(C)=O)[C@]5(CC)C=CCN6CC[C@]43[C@@H]65)C2)C1 [Vinblastine] | Clear |
